Measured values taken from patent US20240376151A1, “STAPLED PEPTIDES AND METHODS THEREOF” (FOG PHARMACEUTICALS, INC., priority 2022, published 2024).
Where two headings read alike, the source gives them in different places. Values belong to the compound of their own block, whether it stands above or below them. Numbered stars: 1 amine (or outer) side, 2 acyl side, 3 side chain; on linkers, the order of the positions; unused ones are H or OH. Bridge positions count the residues as written; N and C are the ends. Peptide text beside a SMILES is read from it. Phenylene(1,4-NHCOCH2)2 = O=C(C[*:1])Nc1ccc(NC(=O)C[*:2])cc1

Tests used:
β-catenin:MDM4 complex = molecular target: T1, β-catenin:MDM4 complex (Homo sapiens, UniProt O15151+P35222, C17S); test: FP analysis of the β-catenin:MDM4 complex; type: biochemical; details: direct FP assay
T1 construct: 6×His-yBBr-TEV (N); 6×His-yBBr-3C (N, cleaved yes); made in house; host or cells: E. coli BL21 (DE3) pLysS (beta-catenin); E. coli BL21 (DE3) (MDM4)
T1 sequence (P35222 134-665): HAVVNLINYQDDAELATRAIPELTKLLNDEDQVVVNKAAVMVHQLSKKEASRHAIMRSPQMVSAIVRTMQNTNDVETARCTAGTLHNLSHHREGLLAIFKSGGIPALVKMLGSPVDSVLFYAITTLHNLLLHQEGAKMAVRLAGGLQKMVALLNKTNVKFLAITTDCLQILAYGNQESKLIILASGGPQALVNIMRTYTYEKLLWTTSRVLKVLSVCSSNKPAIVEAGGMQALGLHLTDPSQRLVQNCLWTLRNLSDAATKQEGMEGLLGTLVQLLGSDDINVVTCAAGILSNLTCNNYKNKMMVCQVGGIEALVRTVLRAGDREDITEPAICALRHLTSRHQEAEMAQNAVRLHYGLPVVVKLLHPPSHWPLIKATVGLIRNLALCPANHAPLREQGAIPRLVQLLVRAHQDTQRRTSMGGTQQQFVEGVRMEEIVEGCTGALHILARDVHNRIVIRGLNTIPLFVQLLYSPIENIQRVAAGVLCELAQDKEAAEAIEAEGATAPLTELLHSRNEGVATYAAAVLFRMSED
T1 sequence (O15151 14-111 C17S): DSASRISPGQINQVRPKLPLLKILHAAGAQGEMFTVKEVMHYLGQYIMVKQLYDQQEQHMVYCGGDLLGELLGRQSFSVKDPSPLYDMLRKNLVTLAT

beta-catenin = molecular target: T2, beta-catenin (Homo sapiens, UniProt P35222); test: KD (μM, SPR)
T2 construct: 10 nM full-length β-catenin (Uniprot ID P35222); 6×His-thrombin-T7-TEV (N); made in house; host or cells: E. coli BL21 (DE3) pLysS
T2 sequence (P35222 2-781 limits assumed): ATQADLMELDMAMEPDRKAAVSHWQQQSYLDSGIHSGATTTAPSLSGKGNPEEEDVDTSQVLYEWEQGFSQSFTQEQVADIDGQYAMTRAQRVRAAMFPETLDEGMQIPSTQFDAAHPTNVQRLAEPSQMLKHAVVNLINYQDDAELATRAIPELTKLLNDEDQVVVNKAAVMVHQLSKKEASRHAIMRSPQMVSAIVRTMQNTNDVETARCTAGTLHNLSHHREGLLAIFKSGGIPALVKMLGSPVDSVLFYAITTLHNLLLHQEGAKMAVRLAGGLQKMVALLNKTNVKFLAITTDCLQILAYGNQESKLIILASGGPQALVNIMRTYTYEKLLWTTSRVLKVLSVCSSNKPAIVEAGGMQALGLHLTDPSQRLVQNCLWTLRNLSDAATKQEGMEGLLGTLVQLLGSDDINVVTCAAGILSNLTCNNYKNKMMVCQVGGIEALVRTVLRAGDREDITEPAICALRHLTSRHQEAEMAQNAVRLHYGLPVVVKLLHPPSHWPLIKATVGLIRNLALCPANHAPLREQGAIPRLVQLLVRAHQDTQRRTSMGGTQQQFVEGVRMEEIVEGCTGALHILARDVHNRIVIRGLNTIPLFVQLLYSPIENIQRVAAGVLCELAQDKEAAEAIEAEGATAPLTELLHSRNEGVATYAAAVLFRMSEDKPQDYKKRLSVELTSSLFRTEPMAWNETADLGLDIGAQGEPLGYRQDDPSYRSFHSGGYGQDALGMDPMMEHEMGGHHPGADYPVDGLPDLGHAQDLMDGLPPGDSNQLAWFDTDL

MDM4 = molecular target: T3, MDM4 (Homo sapiens, UniProt O15151, C17S); test: Direct FP ternary complex formation, fluorescent MDM4 and beta-catenin; type: biochemical; details: fluorescent p53-binding domain of MDM4
T3 construct: 6×His-yBBr-3C (N, cleaved yes); made in house; host or cells: E. coli BL21 (DE3)
T3 sequence (O15151 14-111 C17S): T1 sequence (O15151 14-111 C17S)

β-catenin:MDM2 complex = molecular target: T4, β-catenin:MDM2 complex (Homo sapiens, UniProt P35222+Q00987); test: FP analysis of the β-catenin:MDM2 complex; type: biochemical; details: read-out: EC50 of cooperative interaction between MDM2 and the Armadillo domain of β-catenin
T4 construct: 6×His-yBBr-TEV (N); 6×His-TEV (N, cleaved yes); made in house; host or cells: E. coli BL21 (DE3) pLysS (beta-catenin); E. coli BL21 (DE3) (MDM2)
T4 sequence (Q00987 17-111 limits assumed, one chain of several): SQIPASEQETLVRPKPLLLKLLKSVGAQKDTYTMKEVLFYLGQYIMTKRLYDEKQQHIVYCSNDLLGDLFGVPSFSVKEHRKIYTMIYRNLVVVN

PD-L1 = PD-L1 (Homo sapiens, UniProt Q9NZQ7)
Sequence of PD-L1 (Q9NZQ7 18-239): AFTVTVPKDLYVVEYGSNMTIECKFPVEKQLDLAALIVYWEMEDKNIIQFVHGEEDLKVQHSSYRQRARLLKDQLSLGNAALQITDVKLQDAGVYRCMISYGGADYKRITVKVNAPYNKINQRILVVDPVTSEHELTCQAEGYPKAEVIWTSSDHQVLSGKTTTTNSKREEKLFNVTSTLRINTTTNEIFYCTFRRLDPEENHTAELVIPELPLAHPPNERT

Expi293 cells [1] = test: CellTiter-Glo cell health (ATP levels) during cell association assay; type: cell-based; details: reflective of cell health, luminescence Tfinal (22 hours) / Tinitial
Expi293 cells [2] = test: Measurement of the Cell Association of Helicons (mass spectrometry quantification in cells after treatment and wash); type: cell-based; details: percentage of Helicons in cells after treatment and wash, 22 hours, n = 2, mean ± SD
Experimental: All samples were analyzed using mass spectrometry.

Compound: CC[C@H](C)[C@H](NC(=O)[C@H](C)NC(=O)[C@H](CCC(N)=O)NC(C)=O)C(=O)N[C@H]1CSCC(=O)Nc2ccc(cc2)NC(=O)CSC[C@@H](C(=O)N[C@@H](CC(C)C)C(=O)N[C@@H](C)C(=O)N[C@@H](CC(=O)O)C(=O)N[C@@H](CC(=O)O)C(=O)N[C@@H](Cc2c[nH]c3ccccc23)C(=O)N[C@H](C(N)=O)[C@@H](C)O)NC(=O)[C@H](CCSC)NC(=O)[C@H](Cc2c[nH]c3ccccc23)NC(=O)[C@H](C)NC(=O)[C@H](C)NC(=O)[C@H](CCC(N)=O)NC(=O)[C@H](Cc2ccccc2)NC1=O [Helicon H331]
- promotion of interaction between MDM4 and β-catenin (β-catenin:MDM4 complex): not between MDM4 and β-catenin

- Kd (beta-catenin): 0.4 ± 0.05 µM
Compound: CC(=O)N[C@@H](CC(=O)O)C(=O)N1CCC[C@H]1C(=O)N[C@@H](C)C(=O)N[C@H](C(=O)N[C@@H](C)C(=O)N[C@@H](CCCNC(=N)N)C(=O)N[C@H]1CSCC(=O)Nc2ccc(cc2)NC(=O)CSC[C@@H](C(=O)N[C@@H](CCC(=O)O)C(=O)N[C@@H](CC(C)C)C(=O)N[C@H](C(N)=O)C(C)C)NC(=O)[C@H](Cc2c[nH]cn2)NC(=O)[C@H](CC(C)C)NC(=O)[C@H](C)NC(=O)[C@H](C)NC(=O)[C@H](Cc2c[nH]c3ccccc23)NC(=O)[C@H](CCC(=O)O)NC1=O)[C@@H](C)O [FP49251] (Ac-DPATARCEWAALHCELV-NH2; linker 7-14 via Phenylene(1,4-NHCOCH2)2)

Compound: CC(=O)N1CCC[C@H]1C(=O)N[C@@H](Cc1c[nH]c2ccccc12)C(=O)N[C@@H](CCCCN)C(=O)N[C@@H](Cc1ccc(O)cc1)C(=O)N[C@@H](CCC(=O)O)C(=O)N[C@@H](CCC(N)=O)C(=O)N[C@H](C(=O)N[C@H]1CSCC(=O)Nc2ccc(cc2)NC(=O)CSC[C@@H](C(=O)N[C@@H](CC(C)C)C(=O)N[C@@H](CO)C(=O)N[C@@H](CC(=O)O)C(=O)N[C@@H](CC(=O)O)C(=O)N[C@@H](Cc2c[nH]c3ccccc23)C(=O)N[C@@H](CC(=O)O)C(N)=O)NC(=O)[C@H](CCC(N)=O)NC(=O)[C@H](Cc2c[nH]c3ccccc23)NC(=O)[C@H](C)NC(=O)[C@H](C)NC(=O)[C@H](CCC(N)=O)NC(=O)[C@H](Cc2ccc(O)cc2)NC1=O)C(C)C [Helicon H330]
- ternary complex formation with MDM4 (MDM4): did not occur

Compound: CC[C@H](C)[C@H](NC(=O)[C@H](C)NC(=O)[C@H](CCC(N)=O)NC(=O)[C@H](CCC(N)=O)NC(=O)[C@H](CCC(=O)O)NC(=O)[C@H](CCSC)NC(=O)[C@@H]1CCCN1C(C)=O)C(=O)N[C@H]1CSCC(=O)Nc2ccc(cc2)NC(=O)CSC[C@@H](C(=O)N[C@@H](CC(C)C)C(=O)N[C@@H](C)C(=O)N[C@@H](CC(=O)O)C(=O)N[C@@H](CC(=O)O)C(=O)N[C@@H](Cc2c[nH]c3ccccc23)C(=O)N[C@H](C(N)=O)[C@@H](C)O)NC(=O)[C@H](CCSC)NC(=O)[C@H](Cc2c[nH]c3ccccc23)NC(=O)[C@H](C)NC(=O)[C@H](C)NC(=O)[C@H](CCC(N)=O)NC(=O)[C@H](Cc2ccccc2)NC1=O [Helicon H329] (Ac-PMEQQAICFQAAWMCLADDWT-NH2; linker 8-15 via Phenylene(1,4-NHCOCH2)2)
- EC50 (β-catenin:MDM2 complex): 10 to 100 nM
- promotion of interaction between MDM4 and β-catenin (β-catenin:MDM4 complex): not between MDM4 and β-catenin

- Kd (beta-catenin): 0.3 ± 0.1 µM
Compound: CC(=O)N[C@@H](CC(=O)O)C(=O)N1CCC[C@H]1C(=O)N[C@@H](C)C(=O)N[C@H](C(=O)N[C@@H](Cc1c[nH]cn1)C(=O)N[C@@H](C)C(=O)N[C@H]1CSCC(=O)Nc2ccc(cc2)NC(=O)CSC[C@@H](C(=O)N[C@@H](CCC(=O)O)C(=O)N[C@@H](CC(C)C)C(=O)N[C@H](C(N)=O)C(C)C)NC(=O)[C@H](Cc2c[nH]cn2)NC(=O)[C@H](CC(C)C)NC(=O)[C@H](C)NC(=O)[C@H](C)NC(=O)[C@H](Cc2c[nH]c3ccccc23)NC(=O)[C@H](CCC(=O)O)NC1=O)[C@@H](C)O [FP49252] (Ac-DPATHACEWAALHCELV-NH2; linker 7-14 via Phenylene(1,4-NHCOCH2)2)

- Kd (beta-catenin): 1.4 ± 0.55 µM
Compound: CC(=O)N[C@@H](CC(=O)O)C(=O)N1CCC[C@H]1C(=O)N[C@@H](C)C(=O)N[C@@H](C)C(=O)N[C@@H](Cc1c[nH]cn1)C(=O)N[C@@H](CCCNC(=N)N)C(=O)N[C@H]1CSCC(=O)Nc2ccc(cc2)NC(=O)CSC[C@@H](C(=O)N[C@@H](CCC(=O)O)C(=O)N[C@@H](CC(C)C)C(=O)N[C@H](C(N)=O)C(C)C)NC(=O)[C@H](Cc2c[nH]cn2)NC(=O)[C@H](CC(C)C)NC(=O)[C@H](C)NC(=O)[C@H](C)NC(=O)[C@H](Cc2c[nH]c3ccccc23)NC(=O)[C@H](CCC(=O)O)NC1=O [FP49250] (Ac-DPAAHRCEWAALHCELV-NH2; linker 7-14 via Phenylene(1,4-NHCOCH2)2)

Compound: CC[C@H](C)[C@H](NC(=O)[C@H](Cc1ccccc1)NC(=O)[C@H](Cc1ccc(O)cc1)NC(=O)[C@H](CC(C)C)NC(=O)[C@@H]1CSCC(=O)Nc2ccc(cc2)NC(=O)CSC[C@H](NC(=O)[C@H](CC(=O)O)NC(=O)[C@H](CCCNC(=N)N)NC(=O)[C@H](C)NC(=O)[C@H](CC(N)=O)NC(=O)[C@H](CCC(=O)O)NC(=O)[C@H](CO)NC(=O)[C@@H]2CCCN2C(C)=O)C(=O)N[C@@H](Cc2ccccc2)C(=O)N[C@@H](Cc2c[nH]c3ccccc23)C(=O)N[C@@H](C)C(=O)N[C@@H](C)C(=O)N[C@@H](Cc2c[nH]c3ccccc23)C(=O)N[C@@H](CC(=O)O)C(=O)N1)C(=O)N[C@@H](Cc1ccc(O)cc1)C(=O)N[C@@H](CCC(N)=O)C(N)=O [Helicon H333]
- promotion of interaction between MDM4 and β-catenin (β-catenin:MDM4 complex): not between MDM4 and β-catenin

- phage screen counts, Target Concentration 10 (PD-L1; PD-L1, target concentration 10): 0
- phage screen counts, Target Concentration 30 (PD-L1; PD-L1, target concentration 30): 0
- phage screen counts, Target Concentration 100 (PD-L1; PD-L1, target concentration 100): 12
- phage screen counts, Target Concentration 300 (PD-L1; PD-L1, target concentration 300): 47
- phage screen counts, Target Concentration 1000 (PD-L1; PD-L1, target concentration 1000, first column): 60
- phage screen counts, Target Concentration 1000 (PD-L1; PD-L1, target concentration 1000, second column): 62
Compound: DPAAADCQWAAFLCRVY

- CellTiter-Glo fold change ± SD (Expi293 cells [1]): 1.2 ± 0.01
- Helicon in cells ± SD (%) (Expi293 cells [2]): 6.5 ± 0.5%
Compound: CC[C@H](C)[C@H](NC(=O)[C@H](Cc1ccc(O)cc1)NC(=O)[C@H](CCC(N)=O)NC(=O)[C@]1(C)CCCC=CCCCCCC[C@@](C)(NC(=O)[C@H](Cc2c[nH]cn2)NC(=O)[C@@H](NC(=O)[C@@H](NC(C)=O)[C@@H](C)CC)[C@@H](C)CC)C(=O)N[C@@H](Cc2ccc(O)cc2)C(=O)N[C@@H](CCC(=O)O)C(=O)N[C@@H](C)C(=O)N[C@@H](C)C(=O)N[C@@H](Cc2ccccc2)C(=O)N[C@@H](Cc2ccccc2)C(=O)N1)C(N)=O (single isomer, unassigned) [FP08011, Ac-Ile-Ile-His-R8-Tyr-Glu-Ala-Ala-Phe-Phe-S5-Gln-Tyr-Ile-NH2]

- CellTiter-Glo fold change ± SD (Expi293 cells [1]): 1.2 ± 0.03
- Helicon in cells ± SD (%) (Expi293 cells [2]): 0.3 ± 0.0%
Compound: CC[C@H](C)[C@H](NC(C)=O)C(=O)N[C@@H](CC(C)C)C(=O)N[C@@H](CCC(N)=O)C(=O)N[C@]1(C)CCCCCCC=CCCC[C@@](C)(C(=O)N[C@@H](Cc2c[nH]cn2)C(=O)N[C@@H](Cc2ccc(O)cc2)C(=O)N[C@@H](CCC(N)=O)C(N)=O)NC(=O)[C@H](CO)NC(=O)[C@H](Cc2ccccc2)NC(=O)[C@H](C)NC(=O)[C@H](C)NC(=O)[C@H](CCC(=O)O)NC(=O)[C@H](Cc2ccc(O)cc2)NC1=O (single isomer, unassigned) [FP07860, Ac-Ile-Leu-Gln-R8-Tyr-Glu-Ala-Ala-Phe-Ser-S5-His-Tyr-Gln-NH2]

Compound: Ac-[5FAM]-Lys-Gln-Ser-Gln-Gln-Thr-Phe-R8-Asn-Leu-Trp-Arg-Leu-Leu-S5-Gln-Asn-NH2 (KQSQQTFXNLWRLLXQN; Ac, 5FAM, R8-S5 staple, C-terminal amide; SITE 1 Acetylated 5-Carboxyfluorescein modified residue; SITE 8 (R)-2-amino-2-methyldec-9-enoic acid, useful for stapling/stapled with another amino acid residue comprising an olefin group to form a staple through the olefin group; SITE 15 (S)-2-amino-2-methylhept-6-enoic acid, useful for stapling/stapled with another amino acid residue comprising an olefin group to form a staple through the olefi) [FP47839, reference compound]
- CellTiter-Glo fold change ± SD (Expi293 cells [1]): 1.3 ± 0.01
- Helicon in cells ± SD (%) (Expi293 cells [2]): 2.1 ± 0.1%
